This is an account of results in ChEMBL document CHEMBL4219141, “Identification of an aminothiazole series of RORβ modulators” (Bioorg Med Chem Lett, 2018).

Series [1] addresses T1, Nuclear receptor ROR-gamma (Homo sapiens, UniProt P51449).
T1 sequence (P51449 whole entry): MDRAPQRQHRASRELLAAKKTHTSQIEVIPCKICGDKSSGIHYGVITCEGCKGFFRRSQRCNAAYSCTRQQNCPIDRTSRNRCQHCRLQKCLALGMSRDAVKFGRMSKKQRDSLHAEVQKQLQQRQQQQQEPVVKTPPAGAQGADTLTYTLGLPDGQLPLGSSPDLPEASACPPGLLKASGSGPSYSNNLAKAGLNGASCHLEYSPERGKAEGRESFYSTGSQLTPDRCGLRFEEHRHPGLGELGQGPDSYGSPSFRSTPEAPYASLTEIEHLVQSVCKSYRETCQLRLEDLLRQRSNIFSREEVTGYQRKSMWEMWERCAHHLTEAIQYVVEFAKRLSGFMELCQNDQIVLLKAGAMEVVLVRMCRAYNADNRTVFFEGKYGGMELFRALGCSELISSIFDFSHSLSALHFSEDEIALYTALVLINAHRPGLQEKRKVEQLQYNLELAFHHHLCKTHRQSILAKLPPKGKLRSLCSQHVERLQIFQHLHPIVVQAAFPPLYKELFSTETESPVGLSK

Series [2] is described as follows: Half life in mouse liver microsomes at 1 uM in presence of NADPH by LC-MS/MS analysis. The format is ADME, microsome.
The test system of another series is HEK-293T. The series is described as follows: Toxicity in HEK293T cells at 10 uM. The format is cell-based. The settings on record: human.
Series [3] addresses T2, Nuclear receptor ROR-alpha (Homo sapiens) (UniProt P35398).
T2 sequence (whole entry): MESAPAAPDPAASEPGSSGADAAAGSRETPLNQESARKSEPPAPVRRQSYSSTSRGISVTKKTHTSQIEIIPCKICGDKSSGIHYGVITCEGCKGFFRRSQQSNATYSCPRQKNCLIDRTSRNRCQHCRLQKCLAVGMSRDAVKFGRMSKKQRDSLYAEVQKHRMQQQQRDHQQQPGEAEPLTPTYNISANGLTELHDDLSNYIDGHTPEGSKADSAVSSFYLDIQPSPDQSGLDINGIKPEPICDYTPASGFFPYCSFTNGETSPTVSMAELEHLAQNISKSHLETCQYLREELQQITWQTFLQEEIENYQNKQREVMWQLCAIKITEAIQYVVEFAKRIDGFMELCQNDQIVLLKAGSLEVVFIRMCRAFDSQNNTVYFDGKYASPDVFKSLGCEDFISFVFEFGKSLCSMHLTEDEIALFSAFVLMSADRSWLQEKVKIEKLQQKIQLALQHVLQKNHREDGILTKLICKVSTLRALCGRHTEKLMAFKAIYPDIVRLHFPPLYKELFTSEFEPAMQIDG
The series is described as follows: Inverse agonist activity at GAL4-DNA binding domain-fused human RORalpha ligand binding domain expressed in HEK293T cells incubated for 20 hrs by luciferase reporter gene assay. The class given is cell-based. For orientation: A reporter such as luciferase makes a cellular process visible.

Structures are written as SMILES. Activity calls are given as the source filed them. No cut-off for these calls is given here.

The term IC50 denotes the midpoint of a concentration-inhibition curve.

`Nc1nc(-c2cccc(C(F)(F)F)c2)c(C(=O)c2ccccc2Br)s1` registered an IC50 in series [1] of more than 40 µM.

In turn, `COc1ccccc1C(=O)c1sc(N)nc1-c1cccc(C(F)(F)F)c1` had an IC50 in series [1] of more than 40 µM.

With `CCS(=O)(=O)c1ccc(CC(=O)Nc2nc(-c3ccccc3Cl)c(C(=O)c3ccccc3Cl)s2)cc1`, in series [2], the t1/2 came to 34 min. Also, the Activity entry with HEK-293T was “Non-Toxic”.

Regarding `Nc1nc(-c2cc(C(F)(F)F)cc(C(F)(F)F)c2)c(C(=O)c2ccccc2Cl)s1`, in series [2], the t1/2 is 7.4 min.

As to `Nc1nc(-c2cccc(C(F)(F)F)c2)c(C(=O)c2c(F)cccc2Cl)s1`, the t1/2 in series [2] was found to be 2.7 min. Also, the IC50 in series [1] is more than 40 µM.

On to `Nc1nc(-c2cccc(C(F)(F)F)c2)c(C(=O)c2c(F)cccc2C(F)(F)F)s1`, for which the IC50 in series [1] is more than 40 µM.

`Nc1nc(-c2cccc(C(F)(F)F)c2)c(C(=O)c2ccccc2C(F)(F)F)s1` showed an IC50 in series [1] of more than 40 µM.

In the case of `COc1ccccc1C(=O)c1sc(N)nc1-c1cc(C(F)(F)F)cc(C(F)(F)F)c1`, in series [2], the t1/2 is given as 5.2 min.

On to `COc1ccccc1C(=O)c1sc(N)nc1-c1ccc(Cl)c(C(F)(F)F)c1`, for which, in series [3], the outcome was inactive. The Activity entry in the series with HEK-293T is given as “Non-Toxic”. Further, the IC50 in series [1] is more than 40 µM.

In series [1], `Nc1nc(-c2ccc(Cl)c(C(F)(F)F)c2)c(C(=O)c2ccccc2Cl)s1` yielded an IC50 of more than 40 µM.

As for `Nc1nc(-c2cccc(Cl)c2)c(C(=O)c2ccccc2Cl)s1`, in series [3], the result was inactive. Also, the t1/2 in series [2] was 1.9 min. For the same compound, the Activity entry with HEK-293T is reported as “Non-Toxic”.

For the compound `Nc1nc(-c2cc(Br)cc(C(F)(F)F)c2)c(C(=O)c2ccccc2Cl)s1`, the result in series [3] was inactive. Besides, in series [2], the t1/2 is 5.2 min. Besides, the Activity entry with HEK-293T is listed as “Non-Toxic”. The same compound showed an IC50 in series [1] of more than 40 µM.

In the case of `Nc1nc(-c2ccc(Br)c(C(F)(F)F)c2)c(C(=O)c2ccccc2Cl)s1`, the t1/2 in series [2] was 2.5 min.

Turning to `Nc1nc(-c2cc(Cl)cc(C(F)(F)F)c2)c(C(=O)c2ccccc2Cl)s1`, the t1/2 in series [2] was 6.1 min.

As for `COc1ccccc1C(=O)c1sc(N)nc1-c1cc(Br)cc(C(F)(F)F)c1`, in series [3], the outcome was inactive. Further, the t1/2 in series [2] was determined as 2.3 min. Further, in the series with HEK-293T, the Activity result is given as “Non-Toxic”.

For the compound `Nc1nc(-c2cccc(C(F)(F)F)c2)c(C(=O)c2ccccc2Cl)s1`, the t1/2 in series [2] amounted to 2.9 min.
